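Assay format: 96-well plates, 48-hour exposure. At the GI50, growth is halved. TGI marks complete inhibition of growth.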
What was measured:
Assay in all cases: DTP human tumour cell line panel, 48 h
[1] = test system: UACC-62 melanoma
[2] = test system: NCI-H460 lung
[3] = test system: T-47D breast
[4] = test system: K-562 leukemia
[5] = test system: SK-MEL-28 melanoma
[6] = test system: UO-31 renal
[7] = test system: UACC-257 melanoma
[8] = test system: CAKI-1 renal
[9] = test system: NCI-H522 lung
[10] = test system: HOP-92 NSCLC
[11] = test system: SW-620 colon
[12] = test system: MOLT-4 leukemia
[13] = test system: COLO 205 colon
[14] = test system: SK-MEL-5 melanoma
[15] = test system: DU-145 prostate
[16] = test system: BT-549 breast
[17] = test system: SF-295 CNS
[18] = test system: IGROV1 ovarian
[19] = test system: OVCAR-4 ovarian
[20] = test system: SR leukemia
[21] = test system: M14 melanoma
[22] = test system: HS 578T breast
[23] = test system: RPMI-8226 leukemia
[24] = test system: A549 NSCLC
[25] = test system: SNB-19 CNS
[26] = test system: OVCAR-8 ovarian
[27] = test system: RXF 393 renal
[28] = test system: 786-0 renal
[29] = test system: NCI-H23 lung
[30] = test system: ACHN renal
[31] = test system: U251 CNS
[32] = test system: NCI/ADR-RES ovarian
[33] = test system: SK-MEL-2 melanoma
[34] = test system: SNB-75 CNS
[35] = test system: NCI-H226 lung
[36] = test system: HCT-116 colon
[37] = test system: HL-60(TB) leukemia
[38] = test system: MCF7 breast
[39] = test system: CCRF-CEM leukemia
[40] = test system: SK-OV-3 ovarian
[41] = test system: HCT-15 colon
[42] = test system: PC-3 prostate
[43] = test system: LOX IMVI melanoma
[44] = test system: MDA-MB-435
[45] = test system: SN12C renal
[46] = test system: HOP-62 NSCLC
[47] = test system: MDA-MB-231 breast
[48] = test system: SF-539 CNS
[49] = test system: KM12 colon
[50] = test system: TK-10 renal
[51] = test system: HCC-2998 colon
[52] = test system: A498 renal
[53] = test system: OVCAR-3 ovarian
[54] = test system: SF-268 CNS
[55] = test system: OVCAR-5 ovarian
[56] = test system: HT29 colon
[57] = test system: MALME-3M melanoma

With `O=[N+]([O-])c1ccc(N2CCN(Cc3ccccc3)CC2)c2c1no[n+]2[O-]` the GI50 [1] was 1480 nM, the TGI [1] was 3400 nM and the GI50 [2] was 1610 nM. It also gave a TGI [2] of 3520 nM, a GI50 [3] of 1410 nM and a TGI [3] of 3890 nM. It also gave a GI50 [4] of 1050 nM, a TGI [4] of 2980 nM and a GI50 [5] of 3560 nM. The TGI [5] was 9070 nM, the GI50 [6] was 1280 nM and the TGI [6] was 2590 nM. For the same molecule, the GI50 [7] was 1680 nM, the TGI [7] was 3860 nM and the GI50 [8] was 1420 nM. For the same molecule, the TGI [8] was 3480 nM, the GI50 [9] was 682 nM and the TGI [9] was 2160 nM. For the same molecule, the GI50 [10] was 1070 nM, the TGI [10] was 2360 nM and the GI50 [11] was 1200 nM. For the same molecule, the TGI [11] was 3050 nM, the GI50 [12] was 194 nM and the TGI [12] was 2390 nM. It also gave a GI50 [13] of 1480 nM, a TGI [13] of 3040 nM and a GI50 [14] of 1730 nM. For the same molecule, the TGI [14] was 3730 nM, the GI50 [15] was 1570 nM and the TGI [15] was 2980 nM. For the same molecule, the GI50 [16] was 1930 nM, the TGI [16] was 3780 nM and the GI50 [17] was 1380 nM. It also gave a TGI [17] of 2840 nM, a GI50 [18] of 951 nM and a TGI [18] of 2660 nM. It also gave a GI50 [19] of 1370 nM, a TGI [19] of 3070 nM and a GI50 [20] of 75.1 nM. For the same molecule, the TGI [20] was 973 nM, the GI50 [21] was 1800 nM and the TGI [21] was 3520 nM. The GI50 [22] was 2320 nM, the TGI [22] was 7990 nM and the GI50 [23] was 1760 nM. For the same molecule, the TGI [23] was 4640 nM, the GI50 [24] was 1500 nM and the TGI [24] was 3190 nM. It also gave a GI50 [25] of 2230 nM, a TGI [25] of 6510 nM and a GI50 [26] of 1590 nM. It also gave a TGI [26] of 5250 nM, a GI50 [27] of 1310 nM and a TGI [27] of 2760 nM. The GI50 [28] was 1720 nM, the TGI [28] was 3180 nM and the GI50 [29] was 1980 nM. For the same molecule, the TGI [29] was 5680 nM, the GI50 [30] was 850 nM and the TGI [30] was 2200 nM. For the same molecule, the GI50 [31] was 1240 nM, the TGI [31] was 2650 nM and the GI50 [32] was 2270 nM. It also gave a TGI [32] of 12300 nM, a GI50 [33] of 2220 nM and a TGI [33] of 4760 nM. For the same molecule, the GI50 [34] was 954 nM, the TGI [34] was 2260 nM and the GI50 [35] was 1570 nM. For the same molecule, the TGI [35] was 3460 nM, the GI50 [36] was 950 nM and the TGI [36] was 2380 nM. For the same molecule, the GI50 [37] was 473 nM, the TGI [37] was 2990 nM and the GI50 [38] was 803 nM. The TGI [38] was 2440 nM, the GI50 [39] was 155 nM and the TGI [39] was 2490 nM. It also gave a GI50 [40] of 1980 nM, a TGI [40] of 4890 nM and a GI50 [41] of 805 nM. For the same molecule, the TGI [41] was 2460 nM, the GI50 [42] was 1250 nM and the TGI [42] was 2700 nM. The GI50 [43] was 558 nM, the TGI [43] was 1670 nM and the GI50 [44] was 1720 nM. For the same molecule, the TGI [44] was 3380 nM, the GI50 [45] was 1630 nM and the TGI [45] was 3530 nM. It also gave a GI50 [46] of 1220 nM, a TGI [46] of 2770 nM and a GI50 [47] of 1560 nM. It also gave a TGI [47] of 3080 nM, a GI50 [48] of 1540 nM and a TGI [48] of 3000 nM. The GI50 [49] was 1480 nM, the TGI [49] was 3050 nM and the GI50 [50] was 1750 nM. It also gave a TGI [50] of 3230 nM, a GI50 [51] of 1780 nM and a TGI [51] of 3330 nM. The GI50 [52] was 1520 nM, the TGI [52] was 4350 nM and the GI50 [53] was 1520 nM. For the same molecule, the TGI [53] was 2960 nM, the GI50 [54] was 1420 nM and the TGI [54] was 3220 nM. The GI50 [55] was 4150 nM, the TGI [55] was 8770 nM and the GI50 [56] was 829 nM. The TGI [56] was 2120 nM, the GI50 [57] was 1600 nM and the TGI [57] was 3300 nM.
